One block for each compound: values may come before it.
Legend:
22rv1 xenograft tumor = experiment: Pharmacodynamic study in 22rv1 mouse xenograft tumor model (effect example 11); format: in vivo, mice; settings: for TGITV (relative tumor inhibition rate): Day 19; for Tumor volume, Administration in groups Day 19: mean ± standard error
[1] = test system: PSMA-positive (22RV1) tumor; experiment: Specificity test, PET/CT in PSMA-positive (22RV1) tumor-bearing mice with and without PMPA; format: in vivo; settings: ^68Ga-E3 co-injected with PMPA (2 mg/Kg), FIG. 4
Experimental: The ^68Ga-E3 radiolabeled compound was injected into the tail vein of PSMA-positive (22RV1) tumor-bearing mice (Jiangsu Huajing Molecular Imaging and Drug Research Institute Co., Ltd.) (about 7.4 MBq/mouse, specific activity: 22423.82 KBq/μg) ([…]). After administration, PET/CT was used for 1 h dynamic scanning, medium resolution whole body CT, and 10 min static scanning at 2 h and 3 h. It can be clearly seen from FIG. 3 that the drug is rapidly distributed into the animal body after administration, and the drug is rapidly metabolized by the kidneys and excreted from the body over time.
The next day, the mixture of ^68Ga-E3 and PSMA standard PMPA (2 mg/Kg) was injected into the tail vein of PSMA-positive tumor-bearing mice (about 7.4 MBq/mouse, specific activity: 22423.82 KBq/μg) (50 uCi). After administration, PET/CT was used for 1 h dynamic scanning, medium resolution whole body CT, and 10 min static scanning at 2 h and 3 h. The results are depicted in detailed in FIG. 4.
PMPA is a specific inhibitor of PSMA. When PMPA is administered together with ^68Ga-E3, ^68Ga-E3 and PMPA are rapidly distributed to various organs in the animal body. However, PMPA occupies the PSMA target on the tumor, thus preventing the binding of ^68Ga-E3 to PSMA on the tumor.

PSMA protein = PSMA protein (Homo sapiens (Human), UniProt Q04609); experiment: In vitro binding test of compound and PSMA protein (Biacore); settings: Biacore 8K, 15° C., 1:1 binding model, KD in M; for Kd: read-out: pkD (pKD=−Log KD, binding affinity to PSMA protein) (converted)
Experimental: A Biacore 8K (Cytiva) instrument was used to determine the binding affinity of disclosed compounds to the PSMA protein (Sinobiological). The PSMA protein was captured on SA chips. Before immobilizing the disclosed compounds (flow path 1 and 2, flow rate 10 μL/min), the PSMA protein was immobilized on flow path 2 by using flow buffer (10 μg/ml, flow rate 5 μL/min, injection time 600 s), and 1M NaCl was injected three times consecutively into 50 mM NaOH to condition the sensor surface. After each disclosed compounds injection, isopropanol in 1M NaCl and 50 mM NaOH was used for additional washing (flow path 1, 2, flow rate 10 μL/min, injection time 60 s).
All compounds were dissolved in 100% DMSO and diluted to 10 mM, and then diluted in test buffer (PBS, pH 7.4, 1 mM TCEP ([…]), 0.05% P20, 2% dimethyl sulfoxide) at an appropriate highest concentration. Analytes were run using the following conditions: 15° C. analysis temperature, analysis steps=all set to LMW kinetics; cycle type=single cycle (90 s contact time, 1800 s separation time, 30 ul/min flow rate, channels 1, 2); channel detection=2-1). Data were evaluated using Biacore Insight evaluation software, and data were fit to a 1:1 binding model.
Biacore results are shown in Table 12: pKD=−Log KD, where KD is the binding affinity of the compounds to PSMA protein measured by Biacore. KD is expressed by KD (M)=Kd (1/s)/Ka (1/Ms).

plasma protein = experiment: Determination of plasma protein binding (PPB); format: in vitro ADME; settings: ^177Lu-labeled, 37° C., 10 min, ultrafiltration, FIG. 6
Experimental: Three EP tubes were taken, and 0.2 mL of plasma and 50 μL of ^177Lu-labeled compound were added to each tube. The mixture was incubated in a thermostat at 37° C. for 10 min, and then taken out and added to ultrafiltration tubes, respectively. The ultrafiltration tubes were centrifuged at 13,000 rpm for 45 min. 50 μL of normal saline was then added, and the mixture was centrifuged for another 15 minutes. The radioactive counts per minute of each tube casing and filtrate were then measured. PPB was calculated, and the mean of 3 tubes was recorded. PPB=[(supernatant counts-background counts)]/(subnatant counts+supernatant counts−2*background counts)]*100.

LNCAP cells = experiment: Cell binding test on LNCAP cells; format: cell-based; settings: ^177Lu-labeled, on ice 2 hours, FIG. 1
Experimental: LNCAP cells in the logarithmic growth phase (Obio Technology (Shanghai) Corp., Ltd.) were made into a cell suspension. The cell suspension was adjusted to a cell density of 2×10^5/ml and inoculated 1 mL into a 24-well cell culture plate. Cells were incubated in an incubator at 37° C. for 48 hours. Three hours before the test, the medium was replaced with serum-free RPMI1640 medium (NEWZERUM), the cell culture medium was aspirated, and the cells were washed once with PBS. Serum-free RPMI1640 medium was used to prepare ^177Lu-E series compounds at concentrations of 32, 16, 8, 4, 1, 0.5, 0.1, 0.02, 0.01, 0.002 uCi/mL. The original medium was discarded, and then 1 mL of the prepared solution containing ^177Lu-E series compounds was added to each well. The plate was placed on ice for 2 hours, and then the cells were washed three times with 0.5 mL of ice-cold PBS. The washing solution was aspirated, and the cells were lysed with 0.5 mL of 1M NaOH and washed twice with 0.5 mL of PBS, and the sodium hydroxide (0.5 mL) and PBS (0.5 mL×2) solutions were collected. The uptake counts were determined.

[2] = Determination of Log P (n-octanol/water); format: physicochemical; settings: room temperature, FIG. 5
Experimental: Three EP tubes were taken, and 0.5 mL of saturated n-octanol and 480 μL of ultrapure water were added into each EP tube. 20 μL (about 1 MBq) solution of E series compounds and reference compound were then added respectively. The mixture was shaken evenly and then centrifuged at room temperature (2000 r/min, 5 min, centrifugal radius: 10 cm). 100 μL was taken from the lipid layer and aqueous layer of each tube, and the radioactive counts per minute of the two phases were measured. The Log P value was calculated and the results were averaged.

[3] = 300 μCi of ^177Lu-labeled test sample
[4] = 600 μCi of ^177Lu-labeled test sample

PSMA protein, sequence (Q04609 whole entry): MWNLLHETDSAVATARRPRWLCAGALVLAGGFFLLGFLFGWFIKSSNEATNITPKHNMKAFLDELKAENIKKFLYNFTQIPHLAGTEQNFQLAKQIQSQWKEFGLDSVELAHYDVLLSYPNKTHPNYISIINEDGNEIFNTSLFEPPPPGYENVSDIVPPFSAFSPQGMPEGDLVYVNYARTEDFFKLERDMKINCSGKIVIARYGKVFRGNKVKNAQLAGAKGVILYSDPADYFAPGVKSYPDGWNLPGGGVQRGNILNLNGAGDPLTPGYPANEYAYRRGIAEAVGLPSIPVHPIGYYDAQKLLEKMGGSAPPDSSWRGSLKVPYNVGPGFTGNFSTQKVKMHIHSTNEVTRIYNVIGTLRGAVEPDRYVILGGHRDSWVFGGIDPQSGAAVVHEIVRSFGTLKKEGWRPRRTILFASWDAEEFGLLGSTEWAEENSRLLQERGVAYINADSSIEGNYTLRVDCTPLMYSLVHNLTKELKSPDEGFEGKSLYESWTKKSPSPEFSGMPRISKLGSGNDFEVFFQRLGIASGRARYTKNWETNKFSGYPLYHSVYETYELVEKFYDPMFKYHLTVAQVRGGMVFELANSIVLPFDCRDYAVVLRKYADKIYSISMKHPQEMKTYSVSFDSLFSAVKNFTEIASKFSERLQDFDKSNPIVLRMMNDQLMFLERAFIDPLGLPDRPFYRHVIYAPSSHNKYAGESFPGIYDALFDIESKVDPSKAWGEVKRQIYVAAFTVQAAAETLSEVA

SMILES: O=C(O)CC[C@H](NC(=O)NC(CCCCNC(=O)[C@H](Cc1ccc2ccccc2c1)NC(=O)c1ccc2c(c1)CCN(C(=O)CN1CCN(CC(=O)O)CCN(CC(=O)O)CCN(CC(=O)O)CC1)C2)C(=O)O)C(=O)O (stereo partly shown) [Compound E3]
- TGITV (relative tumor inhibition rate) (22rv1 xenograft tumor; [3]): 71.00%
- Tumor volume, Administration in groups Day 19 (22rv1 xenograft tumor; [3]): 590.66 ± 103.97 mm^3
- TGITV (relative tumor inhibition rate) (22rv1 xenograft tumor; [4]): 80.42%
- Tumor volume, Administration in groups Day 19 (22rv1 xenograft tumor; [4]): 447.12 ± 47.84 mm^3
- specificity against PSMA [1]: high specificity
- pkD (pKD=−Log KD, binding affinity to PSMA protein) (PSMA protein): 9.26
- PPB binding rate (plasma protein): extremely high

SMILES: O=C(O)CC[C@H](NC(=O)N[C@@H](CCCCNC(=O)[C@H](Cc1ccc2ccccc2c1)NC(=O)c1ccc2c(c1)CN(C(=O)CN1CCN(CC(=O)O)CCN(CC(=O)O)CCN(CC(=O)O)CC1)CC2)C(=O)O)C(=O)O [Compound E4]
- Kd (PSMA protein): 0.269 nM

SMILES: O=C(O)CC[C@H](NC(=O)N[C@@H](CCCCNC(=O)[C@H](Cc1ccc2ccccc2c1)NC(=O)C1C2CN(C(=O)CN3CCN(CC(=O)O)CCN(CC(=O)O)CCN(CC(=O)O)CC3)CC21)C(=O)O)C(=O)O (stereo partly shown) [Compound E8]
- pkD (pKD=−Log KD, binding affinity to PSMA protein) (PSMA protein): 9.49

SMILES: O=C(O)CC[C@H](NC(=O)NC(CCCCNC(=O)[C@H](Cc1ccc2ccccc2c1)NC(=O)C1CCC2(CC1)CN(C(=O)CN1CCN(CC(=O)O)CCN(CC(=O)O)CCN(CC(=O)O)CC1)C2)C(=O)O)C(=O)O (stereo partly shown) [Compound E2]
- Kd (PSMA protein): 0.229 nM

SMILES: O=C(O)CC[C@H](NC(=O)N[C@@H](CCCCNC(=O)[C@H](Cc1ccc2ccccc2c1)NC(=O)c1ccc2cc(NC(=O)CN3CCN(CC(=O)O)CCN(CC(=O)O)CCN(CC(=O)O)CC3)ccc2c1)C(=O)O)C(=O)O [Compound E21]
- pkD (pKD=−Log KD, binding affinity to PSMA protein) (PSMA protein): 9.82

SMILES: O=C(O)CC[C@H](NC(=O)NC(CCCCNC(=O)[C@H](Cc1ccc2ccccc2c1)NC(=O)C1CCC2(CC1)CCN(C(=O)CN1CCN(CC(=O)O)CCN(CC(=O)O)CCN(CC(=O)O)CC1)CC2)C(=O)O)C(=O)O (stereo partly shown) [Compound E9]
- Kd (PSMA protein): 0.282 nM

Further lines, with some results ahead:

- pkD (pKD=−Log KD, binding affinity to PSMA protein) (PSMA protein): 10.15
SMILES: O=C(O)CC[C@H](NC(=O)N[C@@H](CCCCNC(=O)[C@H](Cc1ccc2ccccc2c1)NC(=O)c1cnc2cc(NC(=O)CN3CCN(CC(=O)O)CCN(CC(=O)O)CCN(CC(=O)O)CC3)ccc2c1)C(=O)O)C(=O)O [Compound E25]

- pkD (pKD=−Log KD, binding affinity to PSMA protein) (PSMA protein): 9.44
- lipophilicity (Log P) compared with the reference compound PSMA-617 [2]: better lipophilicity
SMILES: O=C(O)CC[C@H](NC(=O)N[C@@H](CCCCNC(=O)[C@H](Cc1ccc2ccccc2c1)NC(=O)C1CCC(NC(=O)CN2CCN(CC(=O)O)CCN(CC(=O)O)CCN(CC(=O)O)CC2)CC1)C(=O)O)C(=O)O (stereo partly shown) [Compound E26]
- cell binding ability (LNCAP cells): excellent cell binding ability

- Kd (PSMA protein): 0.00204 nM
SMILES: O=C(O)CC[C@H](NC(=O)N[C@@H](CCCCNC(=O)[C@H](Cc1ccc2ccccc2c1)NC(=O)[C@H]1CC[C@H](CNC(=O)CN2CCN(CC(=O)O)CCN(CC(=O)O)CCN(CC(=O)O)CC2)CC1)C(=O)O)C(=O)O [PSMA-617, reference compound]
- TGITV (relative tumor inhibition rate) (22rv1 xenograft tumor; [3]): 15.49%
- Tumor volume, Administration in groups Day 19 (22rv1 xenograft tumor; [3]): 1,480.09 ± 446.83 mm^3
- TGITV (relative tumor inhibition rate) (22rv1 xenograft tumor; [4]): 21.18%
- Tumor volume, Administration in groups Day 19 (22rv1 xenograft tumor; [4]): 1,389.81 ± 598.96 mm^3

- pkD (pKD=−Log KD, binding affinity to PSMA protein) (PSMA protein): 10.00
SMILES: O=C(O)CC[C@H](NC(=O)N[C@@H](CCCCNC(=O)[C@H](Cc1ccc2ccccc2c1)NC(=O)C1CC2(C1)CN(C(=O)CN1CCN(CC(=O)O)CCN(CC(=O)O)CCN(CC(=O)O)CC1)C2)C(=O)O)C(=O)O [Compound E22]

Source: patent US20240366813A1, “PEPTIDE-UREA DERIVATIVE, PHARMACEUTICAL COMPOSITION CONTAINING SAME AND APPLICATION THEREOF” (Bivision Pharmaceuticals, Inc., priority 0001, published 2024)
